row,SMILES,melting point [°C]
1,CCOC(=O)c1ncn2c1CN=C(NCC(OC)OC)c1ccccc1-2,121 to 122
2,Cc1nn(C)c(C)c1NC1=NCCO1,131 to 132
3,CCN(c1ccc(C(=O)O)cc1)c1cc2c3c(c1)CCCC3CCC2,284 to 285
4,Cc1cccc2cc(C3CCN(C)CC3)[nH]c(=O)c12,200 to 202
5,COc1cc(C(=O)N2CCN(C(=O)C3=Cc4cc(C)c(C)cc4OCC3)CC2)cc(OC)c1OC,177 to 178
6,O=C1Nc2cccc(Cl)c2C(=O)N2C=CC[C@@H]12,249 to 251
7,CCc1c(OC)nc(OC)nc1C(=O)c1cc(C)cc(C=CC#N)c1,165 to 166
8,O=C(c1nccs1)c1cnn2c(-c3cccc(NC(=O)C4CC4)c3)ccnc12,226 to 229
9,CCCCOC(=O)C(c1ccc(O)c(C(C)(C)C)c1)c1ccc(O)c(C(C)(C)C)c1,124
10,CCOC(=O)C1=C(C)N2CCCC2=C(C(C)=O)C1c1cccc([N+](=O)[O-])c1 (centres undefined),161
11,CCC(n1cncn1)C(O)(Cn1cncn1)c1c(F)cccc1F (centres undefined),110 to 111
12,CC=CCNc1cc(C(=O)O)cc(S(=O)(=O)Nc2ccc(NC(C)=O)cc2)c1Nc1ccc(NC(C)=O)cc1,265
13,OC1C2C=CC1C1N=NC21 (centres undefined),128
14,Cc1c(Cc2cccc(C(F)(F)F)c2F)c2ccc(Cl)c(Cl)c2n1CCCNS(C)(=O)=O,139
15,CC(C)(CCl)c1cc(Cl)nnc1Cl,66.5 to 68.5
16,COc1cc2c(cc1Br)-c1c(-c3cccs3)c3c(n1CC2)C(=O)N(C(C)C)CCNC3,201 to 203
17,C#CCOc1cc(Oc2ccc(F)cc2)ncn1,81.4
18,CCC(=O)CC(=O)C1CCC2C3CCC4CC(O)CCC4(C)C3C(=O)CC12C (centres undefined),128 to 130
19,CC(CCCCc1ccccc1)c1cc(O)c2c(c1)OC(C)(C)C1CCC(=O)C=C21 (centres undefined),204 to 208
20,Cn1cncc1C(O)(c1ccc(Cl)cc1)c1ccc2c(c1)C(c1cccc(Cl)c1)=NCC(=O)N2 (centres undefined),200
21,CC[C@]12CC[C@H]3[C@@H](CC(Cl)C4=CC(=O)CC[C@@H]43)[C@@H]1C=CC2=O (some centres undefined),136

# The next lines start with the values.
row,melting point [°C],SMILES
1,159 to 160,O=C(O)c1ccccc1Oc1ccc(C(F)(F)F)cc1NS(=O)(=O)c1ccc(F)cc1
2,161 to 163,CCOCc1nc2c(N)nc3ccccc3c2n1CC(C)(C)CS(=O)(=O)NC
3,170 to 171,c1ccc(-c2cnc(N3CCc4c([nH]c5ccccc45)C3C3Cc4ccccc4O3)nc2)nc1 (centres undefined)
4,104,CCCC(=CC(=O)Nc1ccccc1)OC
5,295 to 296,CC1COc2c(-c3ccccc3)ccc3c(=O)c(C(=O)O)cn1c23 (centres undefined)
6,200 to 205,O=C(O)c1ccccc1CN1CCc2sccc2C1
7,143 to 144,O=C(N[C@@H]1CC(=O)N(Cc2ccccc2)C1=O)OCc1ccccc1
8,62 to 63,CC(C)(C)[Si](C)(C)Oc1ccc2cc(Br)ccc2c1
9,174 to 175,O=Cc1c2ccccc2c(Cl)c2cc(Cl)ccc12
10,90 to 95,CC(C)(C)OC(=O)N1CCN(CC(O)Cn2c3ccc(Br)cc3c3cc(Br)ccc32)CC1 (centres undefined)
11,158 to 160,COc1ccc2c(c1)c(CC(=O)O)c(C)n2C(=O)c1ccccc1
12,85 to 87,COC(=O)C[C@H](O)C[C@H](O)C=Cc1c(-c2ccc(F)cc2)c(-c2ccccc2)c(C(=O)Nc2cccc(S(N)(=O)=O)c2)n1C(C)C
13,248 to 249,COc1ccc(C(=O)O)c2ccc(C(F)(F)F)nc12
14,91 to 93,CN(CCCNc1ccc(C#N)cc1)C1C2CCC1CN(Cc1ccccc1)C2 (centres undefined)
15,84 to 85,O=Cc1cc2c3ccccc3c3ccccc3c2o1
16,134 to 135,COc1cc(CO)ccc1OCc1nc(-c2cccc([N+](=O)[O-])c2)oc1C
17,307 to 308,Nc1nc2c(s1)-c1c(cnn1-c1ccccc1)CC2
18,173 to 176,CC(=O)NNC(=O)N(O)C1c2ccccc2Oc2ccccc21

# Source: a melting point compilation (Tetko et al.; mined from patent text by program, amines drawn as free bases though some values may be those of a salt)
